From patent publication US20250388543A1, “HETEROARYL COMPOUNDS FOR THE TREATMENT OF PAIN” (VERTEX PHARMACEUTICALS INCORPORATED, priority 2022, published 2025)
pIC50: −log10 of the molar value.

target: human NaV 1.8 (Homo sapiens, UniProt Q9Y5Y9); test: E-VIPR Assay Detecting and Measuring NaV Inhibition Properties; assay type: cell-based; conditions: HEK cells expressing a truncated form of human NaV 1.8 with full channel activity; electrical stimulation, membrane-potential FRET dyes; 30 minutes compound incubation; read-out: measured IC50 value in the E-VIPR Assay
Sequence (Q9Y5Y9 126-1722 limits assumed): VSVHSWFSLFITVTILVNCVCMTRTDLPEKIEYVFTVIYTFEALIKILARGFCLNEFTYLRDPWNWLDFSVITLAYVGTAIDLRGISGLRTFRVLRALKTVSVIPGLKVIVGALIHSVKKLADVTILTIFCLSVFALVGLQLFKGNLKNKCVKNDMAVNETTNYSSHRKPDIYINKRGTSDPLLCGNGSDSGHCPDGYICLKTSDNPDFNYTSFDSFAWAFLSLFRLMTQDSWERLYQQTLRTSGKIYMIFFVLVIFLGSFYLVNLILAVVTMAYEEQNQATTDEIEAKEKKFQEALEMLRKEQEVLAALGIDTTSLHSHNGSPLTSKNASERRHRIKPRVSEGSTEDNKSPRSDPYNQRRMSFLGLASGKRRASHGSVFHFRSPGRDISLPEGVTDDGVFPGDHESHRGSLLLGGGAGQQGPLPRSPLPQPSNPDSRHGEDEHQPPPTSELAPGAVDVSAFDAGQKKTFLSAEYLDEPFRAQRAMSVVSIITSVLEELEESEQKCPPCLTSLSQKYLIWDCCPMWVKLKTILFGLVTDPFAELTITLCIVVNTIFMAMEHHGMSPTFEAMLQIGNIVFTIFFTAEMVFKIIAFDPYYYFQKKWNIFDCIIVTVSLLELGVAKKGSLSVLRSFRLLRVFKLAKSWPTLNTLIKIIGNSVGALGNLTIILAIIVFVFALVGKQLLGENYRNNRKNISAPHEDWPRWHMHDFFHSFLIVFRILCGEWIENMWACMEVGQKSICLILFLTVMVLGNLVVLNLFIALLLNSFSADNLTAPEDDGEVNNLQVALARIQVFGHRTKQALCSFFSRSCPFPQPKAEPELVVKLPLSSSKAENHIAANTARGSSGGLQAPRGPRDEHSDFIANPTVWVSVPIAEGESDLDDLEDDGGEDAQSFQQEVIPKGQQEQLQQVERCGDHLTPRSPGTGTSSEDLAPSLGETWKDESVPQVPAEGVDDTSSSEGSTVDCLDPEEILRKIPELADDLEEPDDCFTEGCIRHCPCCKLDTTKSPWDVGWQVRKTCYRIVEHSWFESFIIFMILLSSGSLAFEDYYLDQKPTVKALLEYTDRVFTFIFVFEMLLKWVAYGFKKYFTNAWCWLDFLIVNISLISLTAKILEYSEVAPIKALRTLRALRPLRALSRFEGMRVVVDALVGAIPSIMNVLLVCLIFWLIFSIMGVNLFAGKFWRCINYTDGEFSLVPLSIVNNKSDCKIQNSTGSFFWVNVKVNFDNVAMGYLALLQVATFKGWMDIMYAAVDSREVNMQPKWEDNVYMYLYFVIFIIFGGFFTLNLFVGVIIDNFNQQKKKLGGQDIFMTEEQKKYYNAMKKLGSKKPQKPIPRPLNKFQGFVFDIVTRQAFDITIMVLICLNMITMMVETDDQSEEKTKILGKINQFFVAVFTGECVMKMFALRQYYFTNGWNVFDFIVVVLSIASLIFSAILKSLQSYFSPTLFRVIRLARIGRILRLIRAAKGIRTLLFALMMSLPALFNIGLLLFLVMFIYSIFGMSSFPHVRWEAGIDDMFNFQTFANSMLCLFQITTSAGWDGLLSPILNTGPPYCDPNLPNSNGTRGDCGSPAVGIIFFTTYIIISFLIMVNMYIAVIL
Description: E-VIPR Assay Detecting and Measuring NaV Inhibition Properties
Sodium ion channels are voltage-dependent proteins that can be activated by inducing membrane voltage changes by applying electric fields. The electrical stimulation instrument and methods of use, referred to as E-VIPR, are described in International Publication No. WO 2002/008748 A3 and C.-J. Huang et al. Characterization of voltage-gated sodium channel blockers by electrical stimulation and fluorescence detection of membrane potential, 24 Nature Biotech. 439-46 (2006), both of which are incorporated by reference in their entirety. The instrument comprises a microtiter plate handler, an optical system for exciting the coumarin dye while simultaneously recording the coumarin and oxonol emissions, a waveform generator, a current- or voltage-controlled amplifier, and parallel electrode pairs that are inserted into assay plate wells. Under integrated computer control, this instrument passes user-programmed electrical stimulus protocols to cells within the wells of the microtiter plate.
16-20 hours prior to running the assay on E-VIPR, HEK cells expressing a truncated form of human NaV 1.8 with full channel activity were seeded into microtiter 384-well plates, pre-coated with matrigel, at a density of 25,000 cells per well. 2.5-5% KIR2.1 BacMam virus was added to the final cell suspension before seeding into cell plates. HEK cells were grown in Dulbecco's Modified Eagle's Medium (DMEM) supplemented with 10% FBS (Fetal Bovine Serum, qualified; Sigma #F4135), 1% NEAA (Non-Essential Amino Acids, Gibco #11140), 1% HEPES (Gibco #15630), 1% Pen-Strep (Penicillin-Streptomycin; Gibco #15140) and 5 μg/ml Blasticidin (Gibco #R210-01). Cells were expanded in 5-layer CellSTACK culture chambers or cell culture flasks with vented caps, with 90-95% humidity and 5% CO2.
Reagents and Stock Solutions:
100 mg/mL Pluronic F-127 (Sigma #P2443), in dry DMSO
Compound Plates: Corning 384-well Polypropylene Round Bottom #3656
Cell Plates: 384-well tissue culture treated plates (Greiner #781091-2B)
2.5-5% KIR 2.1 Bacmam virus (produced in-house), prepared as described in Section 3.3 of J. A. Fornwald et al., Gene Expression in Mammalian Cells Using BacMam, a Modified Baculovirus System, 1350 Methods in Molecular Biology 95-116 (2016), the entire contents of which are incorporated by reference. The concentration used can be dependent on viral titer of each batch.
5 mM DiSBAC6(3), a voltage sensitive oxonol acceptor (CAS number 169211-44-3; 5-[3-(1,3-dihexylhexahydro-4,6-dioxo-2-thioxo-5-pyrimidinyl)-2-propen-1-ylidene]-1,3-dihexyldihydro-2-thioxo-4,6(1H,5H)-pyrimidinedione), in dry DMSO. The preparation of DiSBAC6(3) is analogous to that of DiSBAC4(3) as described in Voltage Sensing by Fluorescence Resonance Energy Transfer in Single Cells, Gonzalez, J. E. and Tsien, R. Y. (1995) Biophys. J. 69, 1272-1280.
5 mM CC2-DMPE, a commercially available membrane-bound coumarin phospholipid FRET donor (ThermoFisher Scientific catalog number K1017, CAS number 393782-57-5; tetradecanoic acid, 1,1′-[(1R)-1-[8-(6-chloro-7-hydroxy-2-oxo-2H-1-benzopyran-3-yl)-3-hydroxy-3-oxido-8-oxo-2,4-dioxa-7-aza-3-phosphaoct-1-yl]-1,2-ethanediyl]ester) was prepared in dry DMSO. See also, Improved indicators of cell membrane potential that use fluorescence resonance energy transfer, Gonzalez, J. E. and Tsien, R. Y. (1997) Chem. Biol. 4, 269-277.
Voltage Assay Background Suppression Compound (VABSC-1) is prepared in H2O (89-363 mM, range used to maintain solubility)
Human Serum (HS, Millipore #S1P1-01KL, or Sigma SLBR5469V and SLBR5470V as a 50%/50% mixture, for 25% assay final concentration)
Sodium Chloride 160 mM (9.35 g/L), Potassium Chloride, 4.5 mM (0.335 g/L), Glucose 10 mM (1.8 g/L), Magnesium Chloride (Anhydrous) 1 mM (0.095 g/L), Calcium Chloride 2 mM (0.222 g/L), HEPES 10 mM (2.38 g/L) in water. […]

Question: `CO[C@@H]1CN(c2nc3ccccc3cc2-c2cc(=O)cc(C)[nH]2)C[C@@H]1C` [Compound 253, 2-[2-[(3S,4S)-3-methoxy-4-methyl-pyrrolidin-1-yl]-3-quinolyl]-6-methyl-1H-pyridin-4-one] was tested. Which pIC50 did it give?
Answer: 5.70 to 6.30

Question: `COc1cc(F)ccc1Oc1cc(C(C)(C)C)cc(C)c1-c1cc(=O)cc(C(O)CO)[nH]1` (stereo not drawn) [Compound 274, 2-[4-tert-butyl-2-(4-fluoro-2-methoxy-phenoxy)-6-methyl-phenyl]-6-(1,2-dihydroxyethyl)-1H-pyridin-4-one] was tested. Which pIC50 did it give?
Answer: ≤ 5.30

Question: With `COc1c(Oc2cnc(C(F)(F)F)cc2-c2[nH]c(C)c(C)c(=O)c2C(=O)O)ccc(F)c1F` [Compound 280, 2-[5-(3,4-difluoro-2-methoxy-phenoxy)-2-(trifluoromethyl)-4-pyridyl]-5,6-dimethyl-4-oxo-1H-pyridine-3-carboxylic acid] as the compound, how does the pIC50 read?
Answer: 5.70 to 6.30

Question: How did the pIC50 turn out when `Cc1cc(-c2[nH]c(C)c(C)c(=O)c2C(=O)O)c(N2CCCC(F)(F)CC2)nc1C(F)(F)F` [Compound 284, 2-[2-(4,4-difluoroazepan-1-yl)-5-methyl-6-(trifluoromethyl)-3-pyridyl]-5,6-dimethyl-4-oxo-1H-pyridine-3-carboxylic acid] was run?
Answer: 5.70 to 6.30

Question: With `COc1cc(F)ccc1Oc1cc(C(C)(C)C)cc(C)c1-c1cc(=O)c(C(=O)N(C)C)c(C)[nH]1` [Compound 289, 6-[4-tert-butyl-2-(4-fluoro-2-methoxy-phenoxy)-6-methyl-phenyl]-N,N,2-trimethyl-4-oxo-1H-pyridine-3-carboxamide] as the compound, how does the pIC50 read?
Answer: 5.70 to 6.30

Question: With `COC(=O)c1c(-c2cc(C(F)(F)F)ncc2N2CCCC(F)(F)CC2)[nH]c(C)c(C)c1=O` [Compound 297, methyl 2-[5-(4,4-difluoroazepan-1-yl)-2-(trifluoromethyl)-4-pyridyl]-5,6-dimethyl-4-oxo-1H-pyridine-3-carboxylate] as the compound, how does the pIC50 read?
Answer: 5.30 to 5.70

Question: With `Cc1c(Oc2ncc(C(F)(F)F)c(C)c2-c2cc(=O)c(C(N)=O)c[nH]2)ccc(F)c1F` [Compound 310, 6-[2-(3,4-difluoro-2-methyl-phenoxy)-4-methyl-5-(trifluoromethyl)-3-pyridyl]-4-oxo-1H-pyridine-3-carboxamide] as the compound, how does the pIC50 read?
Answer: 5.70 to 6.30

Question: How did the pIC50 turn out when `Cc1cc(=O)cc(-c2c(C(F)(F)F)ccnc2N2CCCC(F)(F)CC2)[nH]1` [Compound 318, 2-[2-(4,4-difluoroazepan-1-yl)-4-(trifluoromethyl)-3-pyridyl]-6-methyl-1H-pyridin-4-one] was run?
Answer: ≤ 5.30

Question: `Cc1cc(=O)cc(-c2c(C(F)(F)F)ccnc2N2CCC(F)(F)CC2)[nH]1` [Compound 319, 2-[2-(4,4-difluoro-1-piperidyl)-4-(trifluoromethyl)-3-pyridyl]-6-methyl-1H-pyridin-4-one] was tested. Which pIC50 did it give?
Answer: ≤ 5.30

Question: How did the pIC50 turn out when `Cc1cnc(N2CCCC(F)(F)CC2)c(-c2cc(=O)cc(C)[nH]2)c1` [Compound 320, 2-[2-(4,4-difluoroazepan-1-yl)-5-methyl-3-pyridyl]-6-methyl-1H-pyridin-4-one] was run?
Answer: 5.30 to 5.70

Question: How did the pIC50 turn out when `Cc1cc(=O)cc(-c2cc(C(F)(F)F)ncc2C2CCC(C(F)(F)F)CC2)[nH]1` (stereo not drawn) [Compound 321, 2-methyl-6-[2-(trifluoromethyl)-5-[4-(trifluoromethyl)cyclohexyl]-4-pyridyl]-1H-pyridin-4-one] was run?
Answer: ≤ 5.30

Question: `Cc1cc(=O)cc(-c2cc(C(F)(F)F)ncc2C2CCC(C(F)(F)F)CC2)[nH]1` (stereo not drawn) [Compound 322, 2-methyl-6-[2-(trifluoromethyl)-5-[4-(trifluoromethyl)cyclohexyl]-4-pyridyl]-1H-pyridin-4-one] was tested. Which pIC50 did it give?
Answer: 5.30 to 5.70

Question: With `Cc1cc(=O)cc(-c2ccc(C(F)(F)F)cc2C2(O)CCC(F)(F)CC2)[nH]1` [Compound 323, 2-[2-(4,4-difluoro-1-hydroxy-cyclohexyl)-4-(trifluoromethyl)phenyl]-6-methyl-1H-pyridin-4-one] as the compound, how does the pIC50 read?
Answer: ≤ 5.30

Question: `Cc1cc(=O)cc(-c2ccc(C(F)(F)F)cc2C2=CCC(F)(F)CC2)[nH]1` [Compound 324, 2-[2-(4,4-difluorocyclohexen-1-yl)-4-(trifluoromethyl)phenyl]-6-methyl-1H-pyridin-4-one] was tested. Which pIC50 did it give?
Answer: ≤ 5.30

Question: With `Cc1cc(=O)cc(-c2ccc(C(F)(F)F)cc2C2CCC(F)(F)CC2)[nH]1` [Compound 325, 2-[2-(4,4-difluorocyclohexyl)-4-(trifluoromethyl)phenyl]-6-methyl-1H-pyridin-4-one] as the compound, how does the pIC50 read?
Answer: 5.70 to 6.30
